In patent US9815851B2, “Pyrrolo carboxamides as modulators of orphan nuclear receptor RAR-related orphan receptor-gamma (RORγ, NR1F3) activity and for the treatment of chronic inflammatory and autoimmune diseases” (PHENEX PHARMACEUTICALS AG, priority 2011, dated 2017):
Like-named read-outs stand apart in the source and are kept apart here.

Legend:
RORγ = biological target: T1, RORγ (UniProt P51449); assay: RORγ Gal4 Reporter Gene Assay in 293T cells (firefly and renilla luciferase); assay type: cell-based, human
T1 sequence (P51449 1-518): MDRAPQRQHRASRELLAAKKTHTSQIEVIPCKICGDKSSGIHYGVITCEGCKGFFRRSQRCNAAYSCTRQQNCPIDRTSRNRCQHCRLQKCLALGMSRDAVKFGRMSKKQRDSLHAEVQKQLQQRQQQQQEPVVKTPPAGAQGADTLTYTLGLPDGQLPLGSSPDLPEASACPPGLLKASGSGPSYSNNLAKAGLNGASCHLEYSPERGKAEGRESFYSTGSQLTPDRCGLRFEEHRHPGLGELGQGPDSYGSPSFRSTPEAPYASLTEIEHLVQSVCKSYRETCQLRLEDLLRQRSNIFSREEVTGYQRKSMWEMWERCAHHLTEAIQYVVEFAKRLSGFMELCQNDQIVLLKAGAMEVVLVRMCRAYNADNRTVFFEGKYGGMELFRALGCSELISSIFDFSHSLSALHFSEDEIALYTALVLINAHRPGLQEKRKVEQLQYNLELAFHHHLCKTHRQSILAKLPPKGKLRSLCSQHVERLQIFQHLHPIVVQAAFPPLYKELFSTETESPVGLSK

[1] = biological target: T2, RORγ ligand binding domain (LBD) (Homo sapiens, UniProt P51449); assay: TR-FRET Activity Assay (ligand sensing, RORγ-LBD / coactivator peptide interaction, LANCE); assay type: biochemical
T2 construct: made in house; host or cells: E. coli BL-21 (BL3), vector pDEST15
T2 sequence (P51449 269-508 limits assumed): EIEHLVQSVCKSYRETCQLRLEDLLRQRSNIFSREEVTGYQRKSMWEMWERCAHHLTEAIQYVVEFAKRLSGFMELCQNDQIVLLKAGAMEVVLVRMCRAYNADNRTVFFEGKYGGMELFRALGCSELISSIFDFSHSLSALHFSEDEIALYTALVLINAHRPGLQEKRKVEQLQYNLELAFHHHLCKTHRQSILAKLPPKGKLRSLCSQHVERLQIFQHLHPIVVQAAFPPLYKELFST

[2] = second value of the cell, Gal4 reporter gene assay in 293T cells, firefly luciferase
[3] = third value of the cell, Gal4 reporter gene assay in 293T cells, renilla normalised luciferase
[4] = first value of the cell FRET/FF/REN, TR-FRET activity assay, read-out: pIC50 (FRET) (converted)

| pIC50 (FF) (RORγ; [2]) | pIC50 (REN) (RORγ; [3]) | IC50 [1, 4] | SMILES | pIC50 (FF) (RORγ) | pIC50 (REN) (RORγ) | IC50 [1] |
| --- | --- | --- | --- | --- | --- | --- |
| 6.7 | 6.7 | 1.58 µM | Cc1c(C(=O)NCC2(C(=O)O)CC2)cc(-c2cc(C(C)(C)C)c3c(c2)C2(CCO3)CC2)n1CC1CCCCC1 [17/51] |  |  |  |
| 6.7 | 6.7 | 1.58 µM | Cc1c(C(=O)N2CC(C(=O)O)C2)cc(-c2cc(C(C)(C)C)c3c(c2)C2(CCO3)CC2)n1CC1CCCCC1 [17/52] |  |  |  |
| 6.9 | 6.9 | 1.58 µM | Cc1c(C(=O)N2CCC(C(=O)O)CC2)cc(-c2cc(C(C)(C)C)c3c(c2)C2(CCO3)CC2)n1CC1CCCCC1 [17/53] |  |  |  |
| 7.1 | 7.2 | 1.58 µM | Cc1c(C(=O)N2CCC(C)(C(=O)O)CC2)cc(-c2cc(C(C)(C)C)c3c(c2)C2(CCO3)CC2)n1CC1CCCCC1 [17/54] |  |  |  |
| 7.5 | 7.6 | 2 µM | Cc1c(C(=O)N[C@H]2C[C@H](C(=O)O)C2)cc(-c2cc(C(C)(C)C)c3c(c2)C2(CCO3)CC2)n1CC1CCCCC1 [17/55] |  |  |  |
| 6.4 | 6.4 | 12.6 µM | Cc1c(C(=O)N[C@H]2C[C@@H](C(=O)O)C2)cc(-c2cc(C(C)(C)C)c3c(c2)C2(CCO3)CC2)n1CC1CCCCC1 [17/56] |  |  |  |
| 7.4 | 7.5 | 0.794 µM | Cc1c(C(=O)N[C@H]2CC[C@H](C(=O)O)CC2)cc(-c2cc(C(C)(C)C)c3c(c2)C2(CCO3)CC2)n1CC1CCCCC1 [17/57] |  |  |  |
| 6.7 | 6.7 | 1.58 µM | Cc1c(C(=O)N[C@H]2CC[C@@H](C(=O)O)CC2)cc(-c2cc(C(C)(C)C)c3c(c2)C2(CCO3)CC2)n1CC1CCCCC1 [17/58] |  |  |  |
| 7.6 | 7.6 | 1.58 µM | Cc1c(C(=O)NCC(C)(C)C(=O)O)cc(-c2cc(C(C)(C)C)cc(C3(C)CC3)c2)n1CC1CCCCC1 [17/60] |  |  |  |
| 8.3 | 8.3 | 0.316 µM | Cc1c(C(=O)NCC2(C(N)=O)CCOCC2)cc(-c2cc(C(C)(C)C)cc(C3(C)CC3)c2)n1CC1CCCCC1 [17/62] |  |  |  |
| 7.8 | 7.7 | 0.316 µM | Cc1c(C(=O)NCC2(O)CCOCC2)cc(-c2cc(C(C)(C)C)cc(C3(C)CC3)c2)n1CC1CCCCC1 [17/64] |  |  |  |
| 7.2 | 7.4 | > 20 µM | Cc1c(C(=O)NC2CCOCC2)cc(-c2ccc(S(=O)(=O)N3CCCCC3(C)C)c(C(F)(F)F)c2)n1CC1CCCCC1 [17/69] |  |  |  |
| 7.9 | 7.9 | 1.26 µM | Cc1c(C(=O)NCCc2nnn[nH]2)cc(-c2cc(C(C)(C)C)cc(C3(C)CC3)c2)n1CC1CCCCC1 [17/70] |  |  |  |
| 6.9 | 6.8 | 1.58 µM | Cc1c(C(=O)NCc2nnn[nH]2)cc(-c2cc(C(C)(C)C)cc(C3(C)CC3)c2)n1CC1CCCCC1 [17/71] |  |  |  |
| 7.2 | 7.3 | 1 µM | Cc1c(C(=O)NCCC(C)(C)C(=O)O)cc(-c2cc(C(C)(C)C)cc(C3(C)CC3)c2)n1CC1CCCCC1 [17/73] |  |  |  |
| 6.9 | 6.9 | 2 µM | Cc1c(C(=O)NCC(C)(C)O)cc(-c2cccc3c(S(=O)(=O)NC(C)(C)C)cccc23)n1CC1CCCCC1 [17/76] |  |  |  |
| 8.0 | 8.1 | 0.794 µM | Cc1c(C(=O)NCC(C)(C)c2nn[nH]n2)cc(-c2cc(C(C)(C)C)cc(C3(C)CC3)c2)n1CC1CCCCC1 [17/77] |  |  |  |

Continued, molecule first:

| SMILES | pIC50 (FF) (RORγ; [2]) | pIC50 (REN) (RORγ; [3]) | IC50 [1, 4] | pIC50 (FF) (RORγ) | pIC50 (REN) (RORγ) | IC50 [1] |
| --- | --- | --- | --- | --- | --- | --- |
| Cc1c(C(=O)NC2COC2)cc(-c2cc(C(C)(C)C)cc(C(C)(C)CF)c2)n1CC1CCCCC1 [17/42] |  |  |  | 5.7/7.5/7.6 | 5.7/7.5/7.6 | 2 µM |
| Cc1c(C(=O)NCC2COC2)cc(-c2cc(C(C)(C)C)cc(C(C)(C)C)c2)n1CC1CCCCC1 [17/43] | 7.4 | 7.4 | 0.2 µM |  |  |  |
| Cc1c(C(=O)NCC2(CCO)COC2)cc(-c2cc(C(C)(C)C)cc(C(C)(C)C)c2)n1CC1CCCCC1 [17/44] |  |  |  | 6.2/6.1/6.1 | 6.2/6.1/6.1 | 0.631 µM |
| Cc1c(C(=O)N2CC2CO)cc(-c2cc(C(C)(C)C)cc(C(C)(C)C)c2)n1CC1CCCCC1 (stereo not drawn) [17/45] |  |  |  | 6.0/6.5/6.4 | 6.0/6.5/6.4 | 1 µM |
| COC(=O)CC1(NC(=O)c2cc(-c3cc(C(C)(C)C)cc(C(C)(C)C)c3)n(CC3CCCCC3)c2C)COC1 [17/46] | 6.5/6.5/6.5 | 6.5/6.5/6.5 | 0.316 µM |  |  |  |
| COCC1(CNC(=O)c2cc(-c3cc(C(C)(C)C)cc(C4(C)CC4)c3)n(CC3CCCCC3)c2C)COC1 [17/47] |  |  |  | 6.7/7.3/7.4 | 6.7/7.3/7.4 | 0.2 µM |
| Cc1c(C(=O)NCC2(O)CCOCC2)cc(-c2cc(C(C)(C)C)c3c(c2)C(C)(C)C(=O)N3C)n1CC1CCCCC1 [17/48] | 7.6 | 7.5 | 1 µM |  |  |  |
| Cc1c(C(=O)NCC(C)(C)C(=O)O)cc(-c2cc(C(C)(C)C)c3c(c2)C(C)(C)C(=O)N3C)n1CC1CCCCC1 [17/49] | 7.0 | 7.1 | 2 µM |  |  |  |
| Cc1c(C(=O)NC[C@H]2CC[C@H](C(=O)O)CC2)cc(-c2cc(C(C)(C)C)c3c(c2)C2(CCO3)CC2)n1CC1CCCCC1 [17/59] |  |  |  | 5.7/6.6/6.6 | 5.7/6.6/6.6 | 2 µM |
| Cc1c(C(=O)NCC2(C(=O)O)CCOCC2)cc(-c2cc(C(C)(C)C)cc(C3(C)CC3)c2)n1CC1CCCCC1 [17/61] | 7.4 | 7.5 | 1 µM |  |  |  |
| Cc1c(C(=O)NCC2CCOCC2)cc(-c2cc(C(C)(C)C)cc(C3(C)CC3)c2)n1CC1CCCCC1 [17/63] |  |  |  | 6.7/7.7/7.6 | 6.7/7.7/7.6 | 0.2 µM |
| Cc1c(C(=O)N[C@H]2CCOC2)cc(-c2cc(C(C)(C)C)cc(C3(C)CC3)c2)n1CC1CCCCC1 [17/65] | 7.7 | 7.7 |  |  |  | 0.2 µM |
| Cc1c(C(=O)N[C@@H]2CCOC2)cc(-c2cc(C(C)(C)C)cc(C3(C)CC3)c2)n1CC1CCCCC1 [17/66] | 7.4 | 7.4 |  |  |  | 0.158 µM |
| Cc1c(C(=O)NCC(C)(C)NS(C)(=O)=O)cc(-c2cc(C(C)(C)C)cc(C3(C)CC3)c2)n1CC1CCCCC1 [17/67] |  |  |  | 6.6/7.7/7.5 | 6.6/7.7/7.5 | 0.251 µM |
| COC(C)(C)CNC(=O)c1cc(-c2cc(C(C)(C)C)cc(C3(C)CC3)c2)n(CC2CCCCC2)c1C [17/68] |  |  |  | 6.8/7.4/7.5 | 6.8/7.4/7.5 | 0.158 µM |
| Cc1c(C(=O)NCCC(C)(C)C(N)=O)cc(-c2cc(C(C)(C)C)cc(C3(C)CC3)c2)n1CC1CCCCC1 [17/74] |  |  |  | 6.3/7.3/7.2 | 6.3/7.3/7.2 | 0.501 µM |
| Cc1c(C(=O)NC2CCOCC2)cc(-c2cc(C(=O)NC(C)(C)C)cc(C(=O)NC(C)(C)C)c2)n1CC1CCCCC1 [17/75] |  |  |  | 5.2/5.8/5.8 | 5.2/5.8/5.8 | 6.31 µM |
| Cc1c(C(=O)N(C)CC2(CO)COC2)cc(-c2cc(C(C)(C)C)cc(C3(C)CC3)c2)n1CC1CCCCC1 [17/78] |  |  |  | 6.3/7.3/7.3 | 6.3/7.3/7.3 | 0.501 µM |
